Experimental findings from PubChem BioAssay (NCI) are described below.

Holding throughout (experiment): DTP human tumour cell line panel, 48 h
For assay [1], the system named is MCF7 breast.
For assay [2], the system named is SNB-19 CNS.
Assay [3] deals with SR leukemia.
Assay [4] deals with MDA-MB-231 breast.
Assay [5] concerns 786-0 renal.
Assay [6] has as its system A498 renal.
Assay [7] relates to SK-MEL-5 melanoma.
Assay [8] concerns SF-268 CNS.
Assay [9] concerns NCI/ADR-RES ovarian.
The subject of assay [10] is DU-145 prostate.
In assay [11] the test system is MDA-N.

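Test compounds were applied to cells in 96-well plates for 48 hours at 5 doses. TGI: concentration producing complete growth inhibition.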 A value given as a limit tells only on which side of the number the result lay.

For the compound `CC[C@H](C)C1=C(O)[N@+]2([O-])Oc3ccc(-c4c(O)c(O)c(-c5ccc(O)cc5)c(OC(C)=O)c4OC(C)=O)cc3O[C@]2([C@@H](C)CC)C(=O)N1O`, the TGI in assay [1], in assay [2], in [3], in assay [4], in [5] and in assay [6] was over 50 µM in each case. The TGI in assay [7], in assay [8], in assay [9], in [10] and in assay [11] was over 50 µM each time.
On to `COP(=O)(OC)/C(=C/c1cn(C(c2ccccc2)(c2ccccc2)c2ccccc2)cn1)NC=O`, for which the TGI (as a rule, the concentration giving total growth inhibition) in assay [1] is 33.7 µM; in assay [2], over 100 µM; in assay [3], over 100 µM; in assay [4] it was 33.5 µM; in [5], over 100 µM; in assay [6], 32 µM. Besides, the TGI in assay [7] is 27.5 µM; in [8] it was 33.1 µM; in assay [9] it was over 100 µM; in assay [10], over 100 µM; in [11], 51.4 µM.
As for `CCOC(=O)C(O)(C(=O)OCC)c1cc(C(C)(C)C)c(O)c(C(C)(C)C)c1`, the TGI was over 100 µM in assay [1]; 74.6 µM in assay [2]; over 100 µM in assay [3]; over 100 µM in assay [4]; over 100 µM in [5]; over 100 µM in assay [6]. The TGI is 32.9 µM in [7]; over 100 µM in assay [8]; over 100 µM in assay [9]; over 100 µM in [10]; over 100 µM in assay [11].
Regarding `Cc1cccc2c(N)c3cccc(C(=O)NCC[N+]4(Cc5ccc([N+](=O)[O-])cc5)CCOCC4)c3nc12`, the TGI in [1] is over 100 µM; in [2], over 100 µM; in [3], 64.2 µM; in [4] it was over 86.2 µM; in assay [5], over 100 µM; in [6] it was over 100 µM. In addition, the TGI in [7], in assay [8], in assay [9], in assay [10] and in assay [11] was over 100 µM throughout.
As to `CSc1c(CC(=O)Nc2ccc(Cl)cc2)n(Cc2ccccc2)c2ccccc12`, the TGI was over 100 µM in [1]; over 100 µM in [2]; over 100 µM in assay [3]; 39.3 µM in assay [4]; 30.3 µM in assay [5]; 25.9 µM in assay [6]. In addition, the TGI in assay [7], in assay [8], in [9], in [10] and in assay [11] was over 100 µM throughout.
With `CC(C)(C)C1=CC(=C2C=Cc3ccccc3O2)C=C(C(C)(C)C)C1=O`, the TGI in [1] is 13.1 µM; in assay [2] it was over 50.7 µM; in assay [3], 5.35 µM; in assay [4] it was 11.1 µM; in [5], 9.55 µM; in [6], 16.4 µM. In addition, the TGI is 13.9 µM in assay [7]; over 34.3 µM in [8]; 14.8 µM in assay [9]; 20.8 µM in assay [10]; 7.39 µM in assay [11].
Consider `Nc1ccc(-c2nc3ccccc3s2)cc1C#Cc1ccccc1`, for which the TGI was 19.2 µM in [1]; 72.1 µM in assay [2]; over 100 µM in [3]; 47.8 µM in assay [4]; 32.3 µM in [5]; 42.5 µM in assay [6]. For the same compound, the TGI was found to be 31.1 µM in assay [7]; 54.2 µM in assay [8]; 48.6 µM in assay [9]; 72.5 µM in assay [10]; 35.8 µM in assay [11].
Take `CCn1c2ccccc2c2ccc(C3C(C(=O)OC)=C(C)NC(C)=C3C(=O)OC)cc21`: the TGI is over 100 µM in [1]; over 100 µM in [2]; over 100 µM in assay [3]; over 100 µM in assay [4]; over 100 µM in [5]; 46 µM in [6]. Besides, the TGI in assay [7], in assay [8], in assay [9], in [10] and in assay [11] was over 100 µM each time.
Consider `COc1ccc2c3c1OC1C34CCN(C)C(C2)C4=CC(I)C1(OC)OC` (configuration not stated), for which the TGI turned out to be 19 µM in assay [1]; 30.5 µM in assay [2]; 10.2 µM in assay [3]; 36 µM in assay [4]; 14 µM in [5]; 56.7 µM in assay [6]. Further, the TGI is 25.6 µM in [7]; 42.8 µM in assay [8]; over 100 µM in assay [9]; 22.6 µM in assay [10]; 18.8 µM in assay [11].
For the compound `CCN(CC)c1ccc2cc(C(=O)Nc3ccc(C)cc3)c(=N)oc2c1`, the TGI in assay [1], in assay [2], in assay [3], in assay [4], in assay [5] and in [6] was over 100 µM each time. Further, the TGI in assay [7], in assay [8], in [9], in assay [10] and in assay [11] was over 100 µM in each case.
As for `O=[N+]([O-])/C(C(Cl)=C(Cl)Cl)=C(\N1CCCCC1)n1nnc2ccccc21`, the TGI was over 69.4 µM in assay [1]; 40.3 µM in assay [2]; 58.4 µM in assay [3]; 34.5 µM in [4]; 33.5 µM in assay [5]; 39.1 µM in assay [6]. In addition, the total growth inhibition concentration (TGI) in [7] was 32.7 µM; in assay [8], 45 µM; in assay [9], over 81.1 µM; in [10], 37.7 µM; in assay [11] it was 44.1 µM.
With `Cc1ccc2[nH]c3[nH]c(=S)[nH]c(=O)c3c2c1`, the TGI in assay [1], in assay [2], in assay [3], in [4], in assay [5] and in assay [6] was over 100 µM in each case. Besides, the TGI in assay [7], in assay [8], in assay [9], in [10] and in assay [11] was over 100 µM each time.
